Data: US8772499B2, “TRPV3 modulators” (AbbVie Inc., priority 2011, dated 2014)
Like-named read-outs stand apart in the source and are kept apart here.

Assays:
human TRPV3 = target: T1, human TRPV3 (Homo sapiens, UniProt Q8NET8); test: In vitro antagonism of recombinant human TRPV3 activation (FLIPR Tetra calcium assay); assay type: cell-based; settings: HEK293 cells stably expressing human TRPV3, agonist 2-APB at 80 μM
T1 construct: expressed in transfected cells
T1 sequence (Q8NET8 1-790): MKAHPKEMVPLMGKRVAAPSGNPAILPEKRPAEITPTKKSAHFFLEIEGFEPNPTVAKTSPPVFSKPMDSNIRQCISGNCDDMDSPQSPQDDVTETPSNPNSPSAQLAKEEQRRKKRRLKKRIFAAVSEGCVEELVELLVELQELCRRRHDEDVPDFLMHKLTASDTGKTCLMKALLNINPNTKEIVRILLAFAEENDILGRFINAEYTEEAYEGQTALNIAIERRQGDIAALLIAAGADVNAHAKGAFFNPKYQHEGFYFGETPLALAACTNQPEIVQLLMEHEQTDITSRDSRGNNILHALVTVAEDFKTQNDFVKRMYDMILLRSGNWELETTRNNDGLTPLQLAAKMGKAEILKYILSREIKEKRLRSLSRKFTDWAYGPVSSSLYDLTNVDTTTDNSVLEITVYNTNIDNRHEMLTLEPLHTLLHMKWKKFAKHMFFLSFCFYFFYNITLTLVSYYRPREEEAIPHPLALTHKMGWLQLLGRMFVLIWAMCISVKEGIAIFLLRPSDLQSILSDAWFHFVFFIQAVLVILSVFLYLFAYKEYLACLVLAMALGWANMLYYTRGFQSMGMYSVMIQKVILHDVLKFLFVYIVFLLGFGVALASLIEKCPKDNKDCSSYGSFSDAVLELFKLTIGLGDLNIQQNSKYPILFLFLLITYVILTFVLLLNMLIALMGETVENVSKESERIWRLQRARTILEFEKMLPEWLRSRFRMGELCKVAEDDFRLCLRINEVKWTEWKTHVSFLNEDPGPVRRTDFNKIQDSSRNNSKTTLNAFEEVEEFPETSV
In short: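 Calcium flux read over a 10 min run: compound added at 10 s to Calcium-4-loaded human TRPV3-HEK293 cells, agonist 2-APB (80 μM, its EC80) after 3 min. IC50 derived from peak-minus-baseline signal as percentage of uninhibited 2-APB response, typically averaged over at least two runs.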

[1] = In vitro human microsomal stability assay; assay type: in vitro ADME; settings: for HUMAN MICROSOMAL STABILITY (% REMAINING AFTER 30 MINUTES): microsomes, 0.5 h, 0.5 μM, pH 7.4
In short: (§1)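 Compound incubated at 37 °C with NADPH-supplemented liver microsomes, either human or from Sprague-Dawley rat, to assess metabolic stability.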

[2] = In vitro rat microsomal stability assay; assay type: in vitro ADME, rat (Sprague-Dawley); settings: for RAT MICROSOMAL STABILITY (% REMAINING AFTER 30 MINUTES): Sprague-Dawley, microsomes, 0.5 h, 0.5 μM, pH 7.4
In short: as §1

[3] = actual measured value shown parenthetically, in most cases average of at least two runs, read-out: IC50
[4] = reported range, read-out: IC50 (range class)

SMILES	IC50 (human TRPV3; [3]) [µM]	IC50 (human TRPV3; [4]) [µM]	HUMAN MICROSOMAL STABILITY (% REMAINING AFTER 30 MINUTES) [1] [%]	RAT MICROSOMAL STABILITY (% REMAINING AFTER 30 MINUTES) [2] [%]	HUMAN […] (% REMAINING AFTER 30 MINUTES) ([1]; human liver microsomes, 0.5 μM substrate, 0.25 mg/mL microsomal protein, pH 7.4, 37° C., NADPH, 30 minutes) [%]	RAT […] (% REMAINING AFTER 30 MINUTES) ([2]; rat liver microsomes (Sprague-Dawley), 0.5 μM substrate, 0.25 mg/mL microsomal protein, pH 7.4, 37° C., NADPH, 30 minutes) [%]
OC(C1CCc2cccnc21)C1(c2ccc(F)c(F)c2)CCC1 (stereo not drawn) [Example 172, (syn)-[1-(3,4-difluorophenyl)cyclobutyl][6,7-dihydro-5H-cyclopenta[b]-pyridin-7-yl]methanol]	> 20	> 20	2.4	<0.01	–	–
OC(C1CCc2cccnc21)C1(c2ccc(C(F)(F)F)cc2)CCC1 (stereo not drawn) [Example 173, (anti)-6,7-dihydro-5H-cyclopenta[b]pyridin-7-yl{1-[4-(trifluoromethyl)-phenyl]cyclobutyl}methanol]	> 20	> 20	45	<0.01	–	–
OC(C1CCc2cccnc21)C1(c2ccc(C(F)(F)F)cc2)CCC1 (stereo not drawn) [Example 174, (syn)-6,7-dihydro-5H-cyclopenta[b]pyridin-7-yl{1-[4-(trifluoromethyl)-phenyl]cyclobutyl}methanol]	> 20	> 20	26	<0.01	–	–
OC(C1CCc2cccnc21)C1(c2ccc(OC(F)(F)F)cc2)CCC1 (stereo not drawn) [Example 175, (anti)-6,7-dihydro-5H-cyclopenta[b]pyridin-7-yl{1-[4-(trifluoromethoxy)-phenyl]cyclobutyl}methanol]	> 20	> 20	29	<0.01	–	–
OC(C1CCc2cccnc21)C1(c2ccc(OC(F)(F)F)cc2)CCC1 (stereo not drawn) [Example 176, (syn)-6,7-dihydro-5H-cyclopenta[b]pyridin-7-yl{1-[4-(trifluoromethoxy)-phenyl]cyclobutyl}methanol]	> 20	> 20	20	<0.01	–	–
OC(C1CCc2cccnc21)C1(c2cccc(C(F)(F)F)c2)CCC1 (stereo not drawn) [Example 185, (anti)-6,7-dihydro-5H-cyclopenta[b]pyridin-7-yl{1-[3-(trifluoromethyl)-phenyl]cyclobutyl}methanol]	> 20	> 20	–	–	0.39	<0.01
OC(C1CCc2cccnc21)C1(c2cccc(C(F)(F)F)c2)CCC1 (stereo not drawn) [Example 186, (syn)-6,7-dihydro-5H-cyclopenta[b]pyridin-7-yl{1-[3-(trifluoromethyl)-phenyl]cyclobutyl}methanol]	> 20	> 20	0.18	<0.01	–	–
OC(C1CCCc2cccnc21)C1(c2cccc(OC(F)(F)F)c2)CCC1 (stereo not drawn) [Example 187, (anti)-5,6,7,8-tetrahydroquinolin-8-yl{1-[3-(trifluoromethoxy)phenyl]-cyclobutyl}methanol]	> 20	> 20	<0.01	<0.01	–	–
OC(C1CCCc2cccnc21)C1(c2cccc(OC(F)(F)F)c2)CCC1 (stereo not drawn) [Example 188, (syn)-5,6,7,8-tetrahydroquinolin-8-yl{1-[3-(trifluoromethoxy)phenyl]-cyclobutyl}methanol]	> 20	> 20	0.16	<0.01	–	–
OC(C1CCc2cccnc21)C1(c2cccc(OC(F)(F)F)c2)CCC1 (stereo not drawn) [Example 189, (anti)-6,7-dihydro-5H-cyclopenta[b]pyridin-7-yl{1-[3-(trifluoromethoxy)-phenyl]cyclobutyl}methanol]	> 20	> 20	0.65	<0.01	–	–
OC(C1CCc2cccnc21)C1(c2cccc(OC(F)(F)F)c2)CCC1 (stereo not drawn) [Example 190, (syn)-6,7-dihydro-5H-cyclopenta[b]pyridin-7-yl{1-[3-(trifluoromethoxy)-phenyl]cyclobutyl}methanol]	> 20	> 20	3.7	<0.01	–	–
OC(C1CCCc2cccnc21)C1(c2ccccc2OC(F)(F)F)CCC1 (stereo not drawn) [Example 191, (anti)-5,6,7,8-tetrahydroquinolin-8-yl{1-[2-(trifluoromethoxy)phenyl]-cyclobutyl}methanol]	> 7.4	–	<0.01	<0.01	–	–
OC(C1CCCc2cccnc21)C1(c2ccccc2OC(F)(F)F)CCC1 (stereo not drawn) [Example 192, (syn)-5,6,7,8-tetrahydroquinolin-8-yl{1-[2-(trifluoromethoxy)phenyl]-cyclobutyl}methanol]	> 20	> 20	<0.01	<0.01	–	–
OC(C1CCc2cccnc21)C1(c2ccccc2OC(F)(F)F)CCC1 (stereo not drawn) [Example 194, (syn)-6,7-dihydro-5H-cyclopenta[b]pyridin-7-yl{1-[2-(trifluoromethoxy)-phenyl]cyclobutyl}methanol]	> 20	> 20	0.08	<0.01	–	–
OC(C1CCCc2cccnc21)C1(c2ccccc2C(F)(F)F)CCC1 (stereo not drawn) [Example 195, (anti)-5,6,7,8-tetrahydroquinolin-8-yl{1-[2-(trifluoromethyl)phenyl]-cyclobutyl}methanol]	> 20	> 20	<0.01	<0.01	–	–
OC(C1CCc2cccnc21)C1(c2ccccc2C(F)(F)F)CCC1 (stereo not drawn) [Example 197, (anti)-6,7-dihydro-5H-cyclopenta[b]pyridin-7-yl{1-[2-(trifluoromethyl)-phenyl]cyclobutyl}methanol]	> 20	> 20	0.26	<0.01	–	–
OC(C1CCc2cccnc21)C1(c2ccccc2C(F)(F)F)CCC1 (stereo not drawn) [Example 198, (syn)-6,7-dihydro-5H-cyclopenta[b]pyridin-7-yl{1-[2-(trifluoromethyl)-phenyl]cyclobutyl}methanol]	> 20	> 20	0.05	<0.01	–	–
O[C@H](c1ccccn1)[C@]1(c2ccc(C(F)(F)F)cc2)C[C@H](O)C1 [Example 200, cis-3-[(S)-hydroxy(pyridin-2-yl)methyl]-3-[4-(trifluoromethyl)phenyl]-cyclobutanol]	5.25	–	>85	>85	–	–
OC(c1ccccn1)C1(c2ccc(OC(F)(F)F)cc2)CC2(C1)OCCO2 (stereo not shown) [Example 202, pyridin-2-yl{2-[4-(trifluoromethoxy)phenyl]-5,8-dioxaspiro[3.4]oct-2-yl}-methanol]	5.17	–	73	<0.01	–	–
NC1CCCC1C(O)C1(c2cccc(C(F)(F)F)c2)CCC1 (stereo not shown) [Example 204, (2-aminocyclopentyl) {1-[3-(trifluoromethyl)phenyl]cyclobutyl}methanol]	1.6	–	>85	>85	–	–
NC1CCCC1C(O)C1(c2ccc(C(F)(F)F)cc2)CCC1 (stereo not shown) [Example 205, (2-aminocyclopentyl) {1-[4-(trifluoromethyl)phenyl]cyclobutyl}methanol]	3.87	–	>85	>85	–	–
NC1CCCC1C(O)C1(c2ccc(OC(F)(F)F)cc2)CCC1 (stereo not shown) [Example 206, (2-aminocyclopentyl) {1-[4-(trifluoromethoxy)phenyl]cyclobutyl}methanol]	2.63	–	83	62	–	–
